Data published in ChEMBL document CHEMBL3507680, “University of Dundee, Gates Library screen for HepG2 cell viability”.

Assay: Human HepG2 cell viability assay in 384 well format
Type: toxicity, cell-based
Parameters: dose 125 nL, time 70.5 hour; cytotoxicity at 70.5 h: concentration not given beside the values
Details: HepG2 cells, read-out: Inhibition

Compared with `COc1cc(C(N)=O)c(N(C)S(C)(=O)=O)cc1OC`, `COC(=O)C1=NOC(Cc2cc(OC)c3c(c2)OCO3)C1` (configuration not stated) is lower in cytotoxicity at 70.5 h: -9.06% for the first, -20.2% for the second.

First: Cc1ccc(CN2CC3(CCN(C(=O)c4cccnc4)C3)C2)o1
Second: O=C(NCc1ccccc1)N1CCC2(CC(=O)N(c3ccccc3)C2)C1 (configuration not stated)
The cytotoxicity at 70.5 h of the first is higher: 3.03% for the first, -5.57% for the second.

First: CC(C)CN1C(=O)CC[C@H]2CN(C(=O)Cn3ccccc3=O)CC[C@H]21
Second: CC(C)[C@@H]1CN(Cc2ccccc2C#N)C[C@H]1C(=O)O
The cytotoxicity at 70.5 h of the first is lower: -0.419% for the first, 21% for the second.

Going from `Cc1nn(CCC#N)c(C)c1[C@@H]1C=C[C@@H](NCc2cccc(Cl)c2)C1` to `O=C(O)C1(Cc2cccc(Cl)c2)CCCN(c2ncnc3[nH]ccc23)C1` (configuration not stated), the cytotoxicity at 70.5 h falls from -4.45% to -13%.

Going from `CCC(NC(=O)CN(C)Cc1ccc(C)o1)c1ccc(Br)cc1` (configuration not stated) to `Cn1ccnc1C(NCc1ccc(Br)cc1)c1ccccc1` (configuration not stated), the cytotoxicity at 70.5 h rises from -1.78% to -0.0759%.

Going from `CC(=O)N1CCOCC2(CCCNC2)C1` (configuration not stated) to `O=C1NCCCC12CCN(S(=O)(=O)N1CCOCC1)C2` (configuration not stated), the cytotoxicity at 70.5 h rises from -9.88% to -6.49%.

First: O=C1NCC2(CCCN(C(=O)c3csc(-c4cccs4)n3)C2)O1 (configuration not stated)
Second: Cc1occc1C(=O)N1CCCC2(CCN(c3ccsc3)C2=O)C1 (configuration not stated)
The cytotoxicity at 70.5 h of the first is lower: -14.3% for the first, -6.53% for the second.

Compared with `O=C(NC1CCCC1)[C@H]1CC[C@@H]2[C@@H](CCN2c2ncc(F)cn2)O1`, `CCn1ccnc1CN1CCN(C(C)C(=O)NC2CCCC2)CC1` (configuration not stated) is lower in cytotoxicity at 70.5 h: 13.4% for the first, -4.1% for the second.

First: CNc1ccc(CC2CCCN(C(=O)c3cnco3)C2)nn1 (configuration not stated)
Second: CCCC(=O)N1CCCC(Cn2cc(-c3ccc(F)cc3)nn2)C1 (configuration not stated)
The cytotoxicity at 70.5 h of the first is higher: -9.21% for the first, -11.1% for the second.

Going from `CN1CCCC(c2cccc(-c3cccc(F)c3)n2)C1` (configuration not stated) to `Cc1cc(C)n(C2CCCN(C(=O)CCOc3ccccc3F)C2)n1` (configuration not stated), the cytotoxicity at 70.5 h falls from -5.53% to -9.17%.

Compared with `COCCN1CCC(c2ncc(C(=O)N3CCOCC3)c(C)n2)CC1`, `COCCN1CCC2(CCCN(C(=O)c3ccoc3C)C2)C1=O` (configuration not stated) is lower in cytotoxicity at 70.5 h: -1.72% for the first, -1.73% for the second.

Compared with `Cc1c(C2SCC(=O)Nc3c2c(O)nn3C2CCCC2)cnn1C` (configuration not stated), `CC1c2ncc(CNC(=O)C3CC3)n2CCN1Cc1nccs1` (configuration not stated) is higher in cytotoxicity at 70.5 h: -22.8% for the first, -7.88% for the second.

Compared with `COC1COC2(CCN(Cc3cccc(Cl)c3)CC2)C1` (configuration not stated), `CN1CCOCC12CCN(Cc1nccs1)CC2` is higher in cytotoxicity at 70.5 h: -9.84% for the first, 3.99% for the second.

Going from `Cc1cc(C)cc(C(=O)N2CCN(C(=O)N(C)C)CC2(C)C)c1` to `CN(C)C(=O)N1CCN(C(=O)c2ccc(Cl)c(Cl)c2)C(C)(C)C1`, the cytotoxicity at 70.5 h rises from -0.125% to 0.62%.

First: COCCNC(=O)Nc1ccc(F)c(C(N)=O)c1
Second: CC(=O)NCCc1cn(-c2cc(F)ccc2C)cn1
The cytotoxicity at 70.5 h of the first is higher: -6.9% for the first, -8.56% for the second.

Compared with `c1cnc(N2CC[C@@H](N3CCOCC3)[C@@H]2Cc2ccncc2)nc1`, `O=C(NCC1CCOCC1)c1cc(-c2cccnc2)c2cnccc2n1` is lower in cytotoxicity at 70.5 h: 11.8% for the first, -8.58% for the second.

Compared with `CN(C)CCOCC1CN(Cc2cccs2)Cc2ccnn2C1` (configuration not stated), `COCC(=O)N1Cc2nccn2CC(COc2cccnc2)C1` (configuration not stated) is lower in cytotoxicity at 70.5 h: -9.15% for the first, -14.4% for the second.

First: CCC1=N[C@@]2(CC[C@@H]3CN(Cc4ccccc4C)C[C@@H]32)C(=O)N1C
Second: Cc1ccccc1N1CCCN(C(=O)CCc2nncn2C)CC1
The cytotoxicity at 70.5 h of the first is higher: 0.166% for the first, -7.29% for the second.

Going from `COc1ccc(CN2CCNC(=O)CC2)cc1SC(F)(F)F` to `CCC(=O)N1CCCN(Cc2cc(F)cc(Br)c2)CC1`, the cytotoxicity at 70.5 h rises from 1.64% to 16.2%.

`CCN(CC)C(=O)CNC(=O)c1cnc(-c2ccccc2)nc1` and `Cc1ccccc1NS(=O)(=O)c1ccc(C(=O)O)cc1F` are the same in cytotoxicity at 70.5 h: -2.98% for the first, -2.98% for the second.

First: Fc1ccc2c(c1)nc1n2[C@@H](CNCc2nccs2)COC1
Second: COc1cc(CNCCc2cc(F)cc3c2OCOC3)cc(OC)c1
The cytotoxicity at 70.5 h of the first is lower: -7.36% for the first, 1.52% for the second.

First: O=C1CN(CCCNS(=O)(=O)c2cccc(C(=O)NC3CC3)c2)CCN1
Second: CCc1ccc(C(=O)O)cc1S(=O)(=O)N(C)c1cccc(C#N)c1
The cytotoxicity at 70.5 h of the first is higher: -5.93% for the first, -6.98% for the second.

Compared with `CC(C)N1CCc2onc(Cn3cccn3)c2C1`, `CCOc1ncnc2c1CCN(Cc1csc(C)n1)CC2` is higher in cytotoxicity at 70.5 h: -5.3% for the first, 18.8% for the second.

First: CCc1ccc(C2CC(=O)Nc3c2c(=O)[nH]n3C(C)C)cc1 (configuration not stated)
Second: CCc1c(C)sc2c1c(N)nc(=O)n2CCN(C)C
The cytotoxicity at 70.5 h of the first is lower: 0.136% for the first, 18.9% for the second.

Going from `Cc1cnc(NC(=O)c2cccc(CN(C)Cc3snnc3C)c2)s1` to `CCc1noc(C)c1C(=O)NCc1cc[nH]n1`, the cytotoxicity at 70.5 h rises from -4.01% to 0.164%.

First: N#CCCN(C(=O)COC1CCCC1)C1CC1
Second: O=C(CCCOCc1ccccc1)N1CCCC1c1ccccn1 (configuration not stated)
The cytotoxicity at 70.5 h of the first is higher: -0.353% for the first, -12.6% for the second.

Going from `CCCSCC(=O)N1CCCC2(CCC(=O)N(CCc3c[nH]cn3)C2)C1` (configuration not stated) to `Cc1noc(C2CCC3(CCN(C(=O)c4sccc4C)CC3)O2)n1` (configuration not stated), the cytotoxicity at 70.5 h rises from -5.03% to -4%.

First: CCCOCCCNc1nccc(-c2cn(C)nc2C)n1
Second: CC(C)=CCN1CCOC(Cn2nc(C)cc2C)C1 (configuration not stated)
The cytotoxicity at 70.5 h of the first is lower: -4.32% for the first, 15.4% for the second.

With `CC(CNC(=O)c1cc(Cl)ccc1I)N1CCCC1` (configuration not stated) the cytotoxicity at 70.5 h was -17.1%.
